Experimental findings from patent publication US20240025883A1, “PYRIMIDIN-2-YL SULFONAMIDE DERIVATIVES” (Hoffmann-La Roche Inc., priority 2021, published 2024) are described below.

Broadly, the IC50 is the concentration that gives 50% inhibition. Read a low IC50 as inhibition by little substance.

In the assay the target is human GPR17 short isoform (Homo sapiens (Human), UniProt Q13304). Description: GPR17 cAMP assay (hGPR17 cAMP, antagonist mode against EC80 of MDL29,951). As to conditions: CHO-K1 cells stably expressing human GPR17 short isoform; EC80 of agonist MDL29,951; forskolin 15 μM. The class given is cell-based. The method in brief: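 CHO-K1 cells stably expressing untagged human GPR17 short isoform, 10,000/well in HBSS/10 mM HEPES/0.1% BSA pH 7.4. Compounds added with EC80 MDL29,951 and 0.5 mM IBMX, then 15 μM forskolin 5 min later, 30 min at room temperature; cAMP by TR-FRET, normalized to reference antagonist, sigmoidal fit.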
Sequence of human GPR17 short isoform (Q13304 29-367): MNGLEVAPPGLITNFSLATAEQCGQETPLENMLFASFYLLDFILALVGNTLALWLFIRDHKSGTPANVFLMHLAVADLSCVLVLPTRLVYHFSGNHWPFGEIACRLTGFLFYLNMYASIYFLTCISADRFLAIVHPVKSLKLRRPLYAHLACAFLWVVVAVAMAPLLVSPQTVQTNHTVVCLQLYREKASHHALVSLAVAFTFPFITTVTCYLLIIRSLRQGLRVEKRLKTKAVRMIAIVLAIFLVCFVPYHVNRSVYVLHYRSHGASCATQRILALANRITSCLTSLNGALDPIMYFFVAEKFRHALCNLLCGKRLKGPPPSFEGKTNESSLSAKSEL
In general terms: Cyclic AMP is a second messenger, typically raised through Gs and lowered through Gi signalling.
The compound `COc1nc(NS(=O)(=O)c2c[nH]c3nc(C)ccc23)nc(OC)c1OC(F)F` [Example 286, N-[5-(Difluoromethoxy)-4,6-Dimethoxy-Pyrimidin-2-Yl]-6-Methyl-1H-Pyrrolo[2,3-b]Pyridine-3-Sulfonamide] showed an IC50 of 0.203 µM.

In turn, `COc1nc(NS(=O)(=O)c2c[nH]c3cc(C4CC4)ccc23)ncc1CC(F)F` [Example 254, 6-cyclopropyl-N-[5-(2,2-difluoroethyl)-4-methoxy-pyrimidin-2-yl]-1H-indole-3-sulfonamide] returned an IC50 of 0.075 µM.

In the case of `COc1nc(NS(=O)(=O)c2c[nH]c3cc(Cl)ccc23)nc(C(C)(F)F)c1Br` [Example 82, N-[5-bromo-4-(1,1-difluoroethyl)-6-methoxy-pyrimidin-2-yl]-6-chloro-1H-indole-3-sulfonamide], the IC50 is 0.752 µM.

For the compound `COc1nc(NS(=O)(=O)c2c[nH]c3cc(C(F)F)ccc23)nc(OC)c1OCC#N` [Example 237, N-[5-(cyanomethoxy)-4,6-dimethoxy-pyrimidin-2-yl]-6-(difluoromethyl)-1H-indole-3-sulfonamide], the half-inhibitory concentration (IC50) was found to be 0.034 µM.

The compound `COc1nc(NS(=O)(=O)c2c[nH]c3nc(Cl)ccc23)nc(OC)c1OC(F)(F)CF` [Example 171, 6-chloro-N-[4,6-dimethoxy-5-(1,1,2-trifluoroethoxy)pyrimidin-2-yl]-1H-pyrrolo[2,3-b]pyridine-3-sulfonamide] returned an IC50 of 0.089 µM.

In the case of `COc1nc(NS(=O)(=O)c2c[nH]c3c(F)c(Br)ccc23)nc(OC)c1CCC#N` [Example 243, 6-bromo-N-[5-(2-cyanoethyl)-4,6-dimethoxy-pyrimidin-2-yl]-7-fluoro-1H-indole-3-sulfonamide], the IC50 amounted to 0.009 µM.

`COc1nc(NS(=O)(=O)c2c[nH]c3nc(Br)ccc23)nc(OC)c1Br` [Example 30, 6-bromo-n-(5-bromo-4,6-dimethoxy-pyrimidin-2-yl)-1h-pyrrolo[2,3-b]pyridine-3-sulfonamide] registered an IC50 of 0.043 µM.

For `COc1nc(NS(=O)(=O)c2c[nH]c3c(Cl)c(F)ccc23)ncc1CC(F)F` [Example 130, 7-chloro-N-[5-(2,2-difluoroethyl)-4-methoxy-pyrimidin-2-yl]-6-fluoro-1H-indole-3-sulfonamide], the IC50 was 0.386 µM.

As to `COc1nc(NS(=O)(=O)c2c[nH]c3cc(Cl)ccc23)ncc1C(C)(F)F` [Example 136, 6-chloro-N-[5-(1,1-difluoroethyl)-4-methoxy-pyrimidin-2-yl]-1H-indole-3-sulfonamide], the IC50 came to 0.747 µM.

In turn, `COc1nc(NS(=O)(=O)c2c[nH]c3c4c(ccc23)CCN(C)C4=O)ncc1OCCF` [Example 293, N-[5-(2-Fluoroethoxy)-4-Methoxy-Pyrimidin-2-Yl]-9-Keto-8-Methyl-6,7-Dihydro-1H-Pyrrol[3,2-h]Isoquinoline-3-Sulfonamide] yielded an IC50 of 0.24 µM.

Consider `COc1nc(NS(=O)(=O)c2c[nH]c3c(Br)c(Cl)ccc23)ncc1OCCF` [Example 141, 7-bromo-6-chloro-N-[5-(2-fluoroethoxy)-4-methoxy-pyrimidin-2-yl]-1H-indole-3-sulfonamide], for which the IC50 turned out to be 0.014 µM.

For `COc1nc(NS(=O)(=O)c2csc3nc(Cl)ccc23)ncc1CC(F)F` [Example 139, 6-chloro-N-[5-(2,2-difluoroethyl)-4-methoxy-pyrimidin-2-yl]thieno[2,3-b]pyridine-3-sulfonamide], the 50% inhibitory concentration (IC50) stood at 0.106 µM.

`COc1nc(NS(=O)(=O)c2c[nH]c3cc(Cl)ccc23)nc(OC)c1Br` [Example 12, N-(5-bromo-4,6-dimethoxy-pyrimidin-2-yl)-6-chloro-1H-indole-3-sulfonamide] had an IC50 of 0.02 µM.

Compound `COc1nc(NS(=O)(=O)c2c[nH]c3cc(C(F)F)ccc23)ncc1OC(F)(F)CF` [Example 100, 6-(difluoromethyl)-N-[4-methoxy-5-(1,1,2-trifluoroethoxy)pyrimidin-2-yl]-1H-indole-3-sulfonamide] had an IC50 of 0.16 µM.

Turning to `COc1nc(NS(=O)(=O)c2c[nH]c3c(F)c(C(F)F)ccc23)ncc1CC(F)F` [Example 248, N-[5-(2,2-difluoroethyl)-4-methoxy-pyrimidin-2-yl]-6-(difluoromethyl)-7-fluoro-1H-indole-3-sulfonamide], the IC50 was found to be 0.367 µM.

For `COc1nc(NS(=O)(=O)c2c[nH]c3cc(Cl)ccc23)ncc1OC(C)(F)F` [Example 42, 6-chloro-N-[5-(1,1-difluoroethoxy)-4-methoxy-pyrimidin-2-yl]-1H-indole-3-sulfonamide], the IC50 was determined as 0.194 µM.

As to `COc1nc(NS(=O)(=O)c2c[nH]c3nc(C(F)F)ccc23)nc(OC)c1CC(F)F` [Example 194, N-[5-(2,2-difluoroethyl)-4,6-dimethoxy-pyrimidin-2-yl]-6-(difluoromethyl)-1H-pyrrolo[2,3-b]pyridine-3-sulfonamide], the IC50 worked out at 0.025 µM.

Regarding `COc1nc(NS(=O)(=O)c2c[nH]c3c2ccc2cccnc23)nc(OC)c1OCCF` [Example 117, N-[5-(2-fluoroethoxy)-4,6-dimethoxy-pyrimidin-2-yl]-1H-pyrrolo[3,2-h]quinoline-3-sulfonamide], the IC50 is 0.03 µM.

For `CC#CCOc1cnc(NS(=O)(=O)c2c[nH]c3cc(Cl)ccc23)nc1OC` [Example 175, N-(5-but-2-ynoxy-4-methoxy-pyrimidin-2-yl)-6-chloro-1H-indole-3-sulfonamide], the IC50 was determined as 0.073 µM.

Compound `COc1nc(NS(=O)(=O)c2c[nH]c3cc(Cl)ccc23)ncc1CC(F)CF` (centres unmarked) [Example 176, 6-chloro-N-[5-(2,3-difluoropropyl)-4-methoxy-pyrimidin-2-yl]-1H-indole-3-sulfonamide] yielded an IC50 of 0.047 µM.

On to `COc1nc(NS(=O)(=O)c2csc3nc(Cl)ccc23)nc(OC)c1OC(F)F` [Example 271, 6-chloro-N-[5-(difluoromethoxy)-4,6-dimethoxy-pyrimidin-2-yl]thieno[2,3-b]pyridine-3-Sulfonamide], for which the IC50 came out at 0.29 µM.

In the case of `COc1nc(NS(=O)(=O)c2c[nH]c3cc(Cl)ccc23)ncc1COC(F)F` [Example 262, 6-chloro-N-[5-(difluoromethoxymethyl)-4-methoxy-pyrimidin-2-yl]-1H-indole-3-sulfonamide], the IC50 turned out to be 0.04 µM.

`COc1nc(NS(=O)(=O)c2c[nH]c3c2ccc2cccnc23)nc(OC)c1OCC(F)F` [Example 168, N-[5-(2,2-difluoroethoxy)-4,6-dimethoxy-pyrimidin-2-yl]-1H-pyrrolo[3,2-h]quinoline-3-sulfonamide]: the IC50 was 0.026 µM.

With `COc1nc(NS(=O)(=O)c2c[nH]c3c(C(F)F)c(Cl)ccc23)ncc1CC(F)F` [Example 214, 6-chloro-N-[5-(2,2-difluoroethyl)-4-methoxy-pyrimidin-2-yl]-7-(difluoromethyl)-1H-indole-3-sulfonamide], the IC50 was determined as 0.038 µM.

In turn, `COc1nc(NS(=O)(=O)c2csc3nc(Br)ccc23)nc(OC)c1CC(F)F` [Example 150, 6-bromo-N-[5-(2,2-difluoroethyl)-4,6-dimethoxy-pyrimidin-2-yl]thieno[2,3-b]pyridine-3-sulfonamide] registered an IC50 of 0.039 µM.

In the case of `COc1nc(NS(=O)(=O)c2c[nH]c3cc(Cl)ccc23)nc(OC)c1CCCF` [Example 61, 6-chloro-N-[5-(3-fluoropropyl)-4,6-dimethoxy-pyrimidin-2-yl]-1H-indole-3-sulfonamide], the IC50 came out at 0.007 µM.

Take `COc1nc(NS(=O)(=O)c2csc3nc(Cl)ccc23)ncc1OCCF` [Example 27, 6-chloro-N-[5-(2-fluoroethoxy)-4-methoxy-pyrimidin-2-yl]thieno[2,3-b]pyridine-3-sulfonamide]: the IC50 turned out to be 0.083 µM.

For the compound `COc1nc(NS(=O)(=O)c2c[nH]c3cc(Cl)ccc23)nc(OC)c1CC(C)(F)F` [Example 63, 6-chloro-N-[5-(2,2-difluoropropyl)-4,6-dimethoxy-pyrimidin-2-yl]-1H-indole-3-sulfonamide], the IC50 worked out at 0.182 µM.

`COc1nc(NS(=O)(=O)c2c[nH]c3cc(Cl)ccc23)nc(SC)c1OC(F)F` [Example 86, 6-chloro-N-[5-(difluoromethoxy)-4-methoxy-6-methylsulfanyl-pyrimidin-2-yl]-1H-indole-3-sulfonamide] registered an IC50 of 0.117 µM.

For `COc1nc(NS(=O)(=O)c2c[nH]c3cc(Cl)ccc23)nc(C)c1OCC(F)F` [Example 20, 6-chloro-N-[5-(2,2-difluoroethoxy)-4-methoxy-6-methyl-pyrimidin-2-yl]-1H-indole-3-sulfonamide], the IC50 was found to be 0.399 µM.

Turning to `COc1nc(NS(=O)(=O)c2c[nH]c3cc(C(F)F)ccc23)ncc1OCCF` [Example 235, 6-(difluoromethyl)-N-[5-(2-fluoroethoxy)-4-methoxy-pyrimidin-2-yl]-1H-indole-3-sulfonamide], the IC50 turned out to be 0.032 µM.

`COc1nc(NS(=O)(=O)c2c[nH]c3c(F)c(F)ccc23)ncc1CC(F)F` [Example 164, N-[5-(2,2-difluoroethyl)-4-methoxy-pyrimidin-2-yl]-6,7-difluoro-1H-indole-3-sulfonamide] came in with an IC50 of 0.126 µM.

`COc1nc(NS(=O)(=O)c2c[nH]c3cc(Cl)ccc23)nc(OCF)c1Br` [Example 83, N-[5-bromo-4-(fluoromethoxy)-6-methoxy-pyrimidin-2-yl]-6-chloro-1H-indole-3-sulfonamide] returned an IC50 of 0.078 µM.

In turn, `COc1nc(NS(=O)(=O)c2c[nH]c3c(SC(F)F)c(Cl)ccc23)ncc1CCC#N` [Example 105, 6-chloro-N-[5-(2-cyanoethyl)-4-methoxy-pyrimidin-2-yl]-7-(difluoromethylthio)-1H-indole-3-sulfonamide] gave an IC50 of 0.014 µM.

`COc1nc(NS(=O)(=O)c2c[nH]c3c(F)c(Br)ccc23)ncc1CCC#N` [Example 240, 6-bromo-N-[5-(2-cyanoethyl)-4-methoxy-pyrimidin-2-yl]-7-fluoro-1H-indole-3-sulfonamide] displayed an IC50 of 0.048 µM.
